What was measured:
Type in all cases: cell-based
[1] = tested on: J774A.1 (Mouse BALB/c monocyte macrophage cell line) cells; assay: LPS-induced TNF-α secretion inhibition in J774A.1 cells; conditions: J774.A1, 1 μM compound, graded compared to taurodeoxycholic acid (positive control), read-out: TNF-α production inhibition grade
Summary of the method: (§1)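 Mouse J774A.1 macrophages treated with 1 μM compound; TNF-α secretion measured after LPS stimulation and IL-1β secretion after LPS+ATP stimulation. Suppression graded against taurodeoxycholic acid: A over 100%, B 50–100%, C 20–50%, D under 20%.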

[2] = tested on: J774A.1 (Mouse BALB/c monocyte macrophage cell line) cells; assay: LPS+ATP-induced IL-1β secretion inhibition in J774A.1 cells; conditions: J774.A1, 1 μM compound, graded compared to taurodeoxycholic acid (positive control), read-out: IL-1β production inhibition grade
Summary of the method: as §1

[3] = tested on: U937 cells (human monocytic cell line); assay: Pam2CSK4-induced TNF-α secretion inhibition in PMA-differentiated U937 cells; conditions: U-937, U937 cells differentiated with PMA, read-out: TNF-α production inhibition grade (IC50)
Summary of the method: (§2)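 U937 cells were PMA-differentiated into macrophages and treated with compound before inflammatory stimulus. TNF-α secretion was induced with Pam2CSK4 and IL-1β secretion with BzATP. IC50 (μM) values are graded A-D, with separate cut-offs per cytokine.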

[4] = tested on: U937 cells (human monocytic cell line); assay: BzATP-induced IL-1β secretion inhibition in PMA-differentiated U937 cells; conditions: U-937, U937 cells differentiated with PMA, read-out: IL-1β production inhibition grade (IC50)
Summary of the method: as §2

| SMILES | inhibition at 1 µM [1] | inhibition at 1 µM [2] | IC50 [3] | IC50 [4] |
| --- | --- | --- | --- | --- |
| CC(C)C[C@H](CS(=O)(=O)O)NC(=O)CC[C@@H](C)[C@H]1CC[C@H]2[C@@H]3[C@H](O)C[C@@H]4C[C@H](O)CC[C@]4(C)[C@H]3C[C@H](O)[C@]12C [NC20031] | < 20% | 50 to 100% | < 500 nM | 50 to 100 nM |
| C[C@H](CCC(=O)NC1(CS(=O)(=O)O)CC1)[C@H]1CC[C@H]2[C@@H]3[C@H](O)C[C@@H]4C[C@H](O)CC[C@]4(C)[C@H]3C[C@H](O)[C@]12C [NC20032] | < 20% | 50 to 100% | ≥ 2000 nM | < 50 nM |
| C[C@H](CCC(=O)N1CC[C@H](S(=O)(=O)O)C1)[C@H]1CC[C@H]2[C@@H]3[C@H](O)C[C@@H]4C[C@H](O)CC[C@]4(C)[C@H]3C[C@H](O)[C@]12C [NC20033] | < 20% | 20 to 50% | 1000 to 2000 nM | 50 to 100 nM |
| C[C@H](CCC(=O)N1CC[C@@H](S(=O)(=O)O)C1)[C@H]1CC[C@H]2[C@@H]3[C@H](O)C[C@@H]4C[C@H](O)CC[C@]4(C)[C@H]3C[C@H](O)[C@]12C [NC20034] | < 20% | < 20% | 1000 to 2000 nM | 50 to 100 nM |
| C[C@H](CCC(=O)N(CCN(C)C)CCS(=O)(=O)O)[C@H]1CC[C@H]2[C@@H]3[C@H](O)C[C@@H]4C[C@H](O)CC[C@]4(C)[C@H]3C[C@H](O)[C@]12C [NC20035] | < 20% | < 20% | 1000 to 2000 nM | 50 to 100 nM |
| C[C@H](CCC(=O)N(CCS(=O)(=O)O)Cc1cccnc1)[C@H]1CC[C@H]2[C@@H]3[C@H](O)C[C@@H]4C[C@H](O)CC[C@]4(C)[C@H]3C[C@H](O)[C@]12C [NC20036] | < 20% | < 20% | 500 to 1000 nM | 50 to 100 nM |
| C[C@H](CCC(=O)N(CCS(=O)(=O)O)c1ccccc1)[C@H]1CC[C@H]2[C@@H]3[C@H](O)C[C@@H]4C[C@H](O)CC[C@]4(C)[C@H]3C[C@H](O)[C@]12C [NC20037] | < 20% | 50 to 100% | < 500 nM | < 50 nM |
| C[C@H](CCC(=O)NCCC(=O)O)[C@H]1CC[C@H]2[C@@H]3CC[C@@H]4CC(=O)CC[C@]4(C)[C@H]3CC[C@]12C [NC30002] | < 20% | 50 to 100% | 1000 to 2000 nM | 100 to 200 nM |
| C[C@H](CCC(=O)N(C)CCS(=O)(=O)O)[C@H]1CC[C@H]2[C@@H]3CC[C@@H]4CC(=O)CC[C@]4(C)[C@H]3CC[C@]12C [NC30004] | 20 to 50% | 20 to 50% | 1000 to 2000 nM | ≥ 200 nM |
| C[C@H](CCC(=O)N(CCO)CCS(=O)(=O)O)[C@H]1CC[C@H]2[C@@H]3CC[C@@H]4CC(=O)CC[C@]4(C)[C@H]3CC[C@]12C [NC30006] | < 20% | < 20% | 500 to 1000 nM | ≥ 200 nM |
| C[C@H](CCC(=O)N(CCS(=O)(=O)O)C1CCOCC1)[C@H]1CC[C@H]2[C@@H]3CC[C@@H]4CC(=O)CC[C@]4(C)[C@H]3CC[C@]12C [NC30008] | < 20% | 50 to 100% | 500 to 1000 nM | ≥ 200 nM |
| C[C@H](CCC(=O)N1CCC[C@H](S(=O)(=O)O)C1)[C@H]1CC[C@H]2[C@@H]3CC[C@@H]4CC(=O)CC[C@]4(C)[C@H]3CC[C@]12C [NC30009] | 50 to 100% | 20 to 50% | 500 to 1000 nM | ≥ 200 nM |
| C[C@H](CCC(=O)N1CCC[C@@H](S(=O)(=O)O)C1)[C@H]1CC[C@H]2[C@@H]3CC[C@@H]4CC(=O)CC[C@]4(C)[C@H]3CC[C@]12C [NC30010] | > 100% | 50 to 100% | 500 to 1000 nM | < 50 nM |
| C[C@H](CCC(=O)N1CCC(S(=O)(=O)O)CC1)[C@H]1CC[C@H]2[C@@H]3CC[C@@H]4CC(=O)CC[C@]4(C)[C@H]3CC[C@]12C [NC30011] | < 20% | < 20% | 500 to 1000 nM | ≥ 200 nM |
| C[C@H](CCC(=O)N1CC(S(=O)(=O)O)C1)[C@H]1CC[C@H]2[C@@H]3CC[C@@H]4CC(=O)CC[C@]4(C)[C@H]3CC[C@]12C [NC30012] | < 20% | 20 to 50% | ≥ 2000 nM | ≥ 200 nM |
| C[C@H](CCC(=O)NC(C)(C)CS(=O)(=O)O)[C@H]1CC[C@H]2[C@@H]3CC[C@@H]4CC(=O)CC[C@]4(C)[C@H]3CC[C@]12C [NC30013] | 50 to 100% | 50 to 100% | 500 to 1000 nM | ≥ 200 nM |
| C[C@H](CCC(=O)N[C@@H](Cc1ccccc1)CS(=O)(=O)O)[C@H]1CC[C@H]2[C@@H]3CC[C@@H]4CC(=O)CC[C@]4(C)[C@H]3CC[C@]12C [NC30014] | < 20% | 20 to 50% | 500 to 1000 nM | ≥ 200 nM |
| C[C@H](CCC(=O)N[C@H](Cc1ccccc1)CS(=O)(=O)O)[C@H]1CC[C@H]2[C@@H]3CC[C@@H]4CC(=O)CC[C@]4(C)[C@H]3CC[C@]12C [NC30015] | < 20% | < 20% | < 500 nM | ≥ 200 nM |
| CC(C)[C@@H](CS(=O)(=O)O)NC(=O)CC[C@@H](C)[C@H]1CC[C@H]2[C@@H]3CC[C@@H]4CC(=O)CC[C@]4(C)[C@H]3CC[C@]12C [NC30016] | 20 to 50% | 20 to 50% | < 500 nM | ≥ 200 nM |
| CC(C)[C@H](CS(=O)(=O)O)NC(=O)CC[C@@H](C)[C@H]1CC[C@H]2[C@@H]3CC[C@@H]4CC(=O)CC[C@]4(C)[C@H]3CC[C@]12C [NC30017] | < 20% | < 20% | ≥ 2000 nM | ≥ 200 nM |
| C[C@H](CCC(=O)N[C@H](CS(=O)(=O)O)c1ccccc1)[C@H]1CC[C@H]2[C@@H]3CC[C@@H]4CC(=O)CC[C@]4(C)[C@H]3CC[C@]12C [NC30018] | < 20% | < 20% | ≥ 2000 nM | ≥ 200 nM |
| C[C@H](CCC(=O)N[C@@H](CS(=O)(=O)O)c1ccccc1)[C@H]1CC[C@H]2[C@@H]3CC[C@@H]4CC(=O)CC[C@]4(C)[C@H]3CC[C@]12C [NC30019] | < 20% | < 20% | 1000 to 2000 nM | ≥ 200 nM |
| C[C@H](CCC(=O)N1CCC[C@@H]1CS(=O)(=O)O)[C@H]1CC[C@H]2[C@@H]3CC[C@@H]4CC(=O)CC[C@]4(C)[C@H]3CC[C@]12C [NC30020] | < 20% | 20 to 50% | ≥ 2000 nM | ≥ 200 nM |
